# Measured values published in patent publication US4123532A, “Method for treatment of asthma” (E. R. Squibb & Sons, Inc., priority 1977, dated 1978).
# Read-outs that look alike come from different tables or passages of the source.
# System: reaginic antibody-induced passive cutaneous anaphylaxis (PCA) reaction
# Test: Passive Cutaneous Anaphylaxis (PCA) Test in rats (anti-asthma activity)
# Assay type: in vivo, rat
# Conditions: for anti-asthma activity: rat PCA testing, result in words; for ED50: Rattus norvegicus, read-out: ID50 (the source's name)
# From the text: The skin of rats is first sensitized by the intradermal injection of reaginic (allergic) antibody. Twenty-four hours later, the animals receive a challenge injection of antigen together with Evan's blue dye given intravenously. The antigen, thus injected directly into the circulation, encounters the antibody in the skin and an "allergic reaction" occurs which is identified by the formation of intracutaneous edema. The edema is marked by the presence of the Evan's blue dye in the circulation.
# The anti-asthmatic activity of these compounds is determined by the reaginic antibody-induced passive cutaneous anaphylaxis (PCA) reaction in rats.
# In this test, 0.05 ml of appropriately diluted whole rat serum containing IgE antibody is injected intradermally into the skin of a rat. The next day, the animals are dosed with the test compound ten minutes prior to the i.v. challenge injection of antigen and Evan's blue dye. Thirty minutes later, the animals are sacrificed, the skin reflected and the reaction quantitated by measuring the dye-marked edema and scoring the color intensity of the reaction.
# [1] = IP, 75 mpk, rats dosed ten min. prior to challenge
# [2] = IP, rats dosed ten min. prior to challenge
compound,measurement,setting,value
"CCOC(=O)c1c(-c2ccccc2)nn2c(=O)[nH]c3ccccc3c12 [5,6-Dihydro-5-oxo-2-phenylpyrazolo[1,5-c]quinazoline-1-carboxylic acid, ethyl ester]",Maximum % inhibition,[1],42%
same,anti-asthma activity,,has anti-asthma activity
"CCCCOC(=O)c1cc2c3ccccc3[nH]c(=O)n2n1 [5,6-Dihydro-5-oxopyrazolo[1,5-c]-quinazoline-2-carboxylic acid, n-butyl ester]",Maximum % inhibition,"IP, (150 mpk) (10 mg/kg) both printed, rats dosed ten min. prior to challenge",78%
same,ED50,[2],9 mg/kg
same,anti-asthma activity,,has anti-asthma activity
"CCOC(=O)c1cc2c3ccccc3[nH]c(=O)n2n1 [5,6-Dihydro-5-oxopyrazolo[1,5-c]quinazoline-2-carboxylic acid, ethyl ester]",Maximum % inhibition,"IP, 10 mg/kg, rats dosed ten min. prior to challenge",94%
same,Maximum % inhibition,"PO, 9 mg/kg, rats dosed ten min. prior to challenge",95%
same,ED50,[2],2 mg/kg
same,ED50,"PO (orally), rats dosed ten min. prior to challenge",3 mg/kg
same,anti-asthma activity,,has anti-asthma activity
"CCOC(=O)c1cc2c3cc(Cl)ccc3[nH]c(=O)n2n1 [9-Chloro-5,6-dihydro-5-oxopyrazolo[1,5-c]quinazoline-2-carboxylic acid, ethyl ester]",Maximum % inhibition,[1],93%
same,ED50,[2],9 mg/kg
same,anti-asthma activity,,has anti-asthma activity
COC(=O)c1nn2c(=O)[nH]c3ccccc3c2c1C(=O)OC [Example 11],% Inhibition,"PCA, IP, 150 mpk",21%
CC(=O)c1cc2c3ccccc3[nH]c(=O)n2n1 [Example 12],% Inhibition,"PCA, IP, 75 mpk",32%
"O=C(O)c1cc2c3ccccc3[nH]c(=O)n2n1 [Example 13, 5,6-Dihydro-5-oxopyrazolo-[1,5-c]quinazoline-2-carboxylic acid]",% Inhibition,"PCA, IP, 75 mpk",36%
CC(=O)c1cc2c3ccccc3n(C)c(=O)n2n1 [Example 14],% Inhibition,"PCA, IP, 150 mpk",32%
CCOC(=O)c1nn2c(=O)[nH]c3ccccc3c2c1C [Example 15],% Inhibition,"PCA, IP, 150 mpk",63%
same,ED50,"PCA, IP",58 mg/kg
O=C(c1ccccc1)c1cc2c3ccccc3[nH]c(=O)n2n1 [Example 16],% Inhibition,"PCA, IP, 150 mpk",37%
CCOC(=O)c1cc2c3cc(OC)ccc3[nH]c(=O)n2n1 [Example 17],% Inhibition,"PCA, IP, 25 mpk",90%
"O=c1[nH]c2ccccc2c2ccnn12 [Pyrazolo[1,5-c]quinazoline-5(6H)-one, Pyrazolo[1,5-c]quinazolin-5(6H)-one]",Maximum % inhibition,[1],59%
same,anti-asthma activity,,has anti-asthma activity
